Measured values reported in US7160992B2, “Amino-modified polysaccharides and methods of generating and using same” (Yeda Research and Development Co., Ltd., priority 2003, dated 2007).
Several values for one entry are separate records, joined by “and”; a condition that tells them apart may be missing. Equal entries are not always repeated.

What was measured:
TAR RNA = test: Fluorescence anisotropy: RhdRev binding and AAC competition for TAR RNA; design: species or system HIV-1; conditions: for Kd: competition of AACs with RhdRev (10 nM) for TAR RNA (20 nM) binding, 85 mM NaCl; for IC50: competition of AACs with RhdRev for TAR RNA binding; for competition with RhdRev for TAR RNA binding (in words): up to 20 μM of AAC
RRE IIB RNA = test: Fluorescence anisotropy: RhdRev binding and AAC competition for RRE IIB RNA; design: species or system HIV-1; conditions: for Kd: competition of AACs with RhdRev (10 nM) for RRE IIB RNA (20 nM) binding, 85 mM NaCl; for IC50: competition of AACs with RhdRev for RRE IIB RNA binding
MT-2 cells = test: Cellular uptake competition of AACs with NeoR6-FITC, flow cytometry; assay type: cell-based; conditions: for competition with NeoR6-FITC uptake (in words): 100 fold excess of non-labeled AAC; for inhibition of NeoR6-FITC uptake, less affinity than NeoR6: 100 fold excess of non-labeled AAC over 0.5 μM NeoR6-FITC
Method: Following 15 minutes of incubation at room temperature, the cells were washed twice with ice-cold PBS and fixed in PBS containing 1% paraformaldehyde. Fluorescence was analyzed using flow cytometry.
After 5 or 15 min of incubation at room temperature, the cells were washed twice with ice-cold PBS and fixed in PBS containing 1% paraformaldehyde. The fluorescence was then analyzed by flow cytometry (FACScan, Becton Dickinson Imunocytometry Systems, San Jose, Calif., USA). For each sample 10,000 events were acquired. Data were analyzed and processed.

CXCR4 = target: T1, CXCR4 (Homo sapiens, UniProt P61073); test: Inhibition of anti-CXCR4 mAb 12G5 binding to cells, flow cytometry; assay type: cell-based; conditions: for reduction of 12G5 mAb binding to the cells: 10 μM AAC, PM1 cells, 30 min at 4° C.; for inhibition of mAb 12G5 or SDF-1α binding to CXCR4, % of the NeoR6 activity: in comparison to NeoR6; for inhibition of 12G5 mAb binding to CXCR4 (in words): 20 μM aminoglycoside antibiotic
T1 construct: endogenous in cells; host or cells: PM1 cells and PBMC
T1 sequence (P61073 whole entry): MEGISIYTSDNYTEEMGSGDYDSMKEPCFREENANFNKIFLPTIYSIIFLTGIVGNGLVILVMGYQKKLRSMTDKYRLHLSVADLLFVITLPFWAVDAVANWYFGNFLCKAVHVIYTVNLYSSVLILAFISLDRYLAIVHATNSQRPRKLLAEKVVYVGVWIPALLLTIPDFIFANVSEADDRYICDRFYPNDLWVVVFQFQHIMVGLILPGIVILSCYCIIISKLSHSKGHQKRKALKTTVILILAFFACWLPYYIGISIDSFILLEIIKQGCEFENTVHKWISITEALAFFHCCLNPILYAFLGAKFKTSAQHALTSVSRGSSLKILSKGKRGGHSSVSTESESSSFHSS
Method: FIGS. 11a–d are graphs depicting the binding of AACs to CXCR4 in the presence of anti CXCR4 antibody (12G5). PM1 cells were incubated with PE-conjugated isotype control mAb, PE-anti CXCR4 conjugated mAb (12G5) alone, or in the presence of the indicated AACs for 30 min at 4° C. The cells were then washed twice with PBS and analyzed by flow cytometry. The MFI values are shown in parenthesis.
Interaction of AACs with CXCR4 was determined by flow cytometry (FACScan, Becton Dickinson) as described recently (Litovchick et al., 2001, supra). Briefly, 0.5×10^6 cells were washed in ice-cold PBS containing 0.1% sodium azide (wash buffer) and incubated at 4° C. with anti-CXCR4 mAb, 12G5 (PharMingen, San Diego, Calif.) conjugated to phycoerithrine (PE), in the absence or presence of different concentrations of the AACs. After 30 min of incubation, the cells were washed with ice-cold wash buffer and fixed in PBS containing 1% paraformaldehyde. Non-specific fluorescence was assessed by using isotype-matched control. For each sample 10,000 events were acquired. Data were analyzed and processed using CellQuest™ software (Becton Dickinson).

[1] = tested on: U38, PM1, H9 cells and PBMC; test: Cellular uptake of AAC-FITC fluorescent probes, fluorescence microscopy; assay type: cell-based; conditions: 0.5 μM, 10 minutes of incubation
Method: Images were obtained using a Zeiss Axiophot microscope.
Cellular uptake using AAC fluorescent probes—U38, PM1, H9 cells and PBMC(10^5) were incubated for 20 minutes at room temperature in 100 μl RPMI 1640 medium (Gibco-BRL, Life-Technologies, UK) including AAC-FITC derivatives as indicated at a final concentration of 0.5 μM. Cells were washed twice, resuspended in 100 μl medium and analyzed with a Zeiss Axiophot fluorescent microscope.

PM1 cells = test: Inhibition of FITC-labeled AAC uptake by SDF-1α, flow cytometry; assay type: cell-based; conditions: for MFI of FITC-AAC uptake: background MFI of 10; for inhibition of cell uptake by SDF-1α: PM1 cells
Method: Following 20 minutes at room temperature the cells were washed twice with PBS and analyzed by flow cytometry.
Following 30 minutes of incubation, cells were washed with ice-cold wash buffer and analyzed by flow cytometry as described above.

cMAGI cells = test: Competition between FITC-labelled AACs and RANTES; assay type: cell-based; conditions: 2.5 mM RANTES
Method: Competition between FITC labelled AACs (1 mM) and RANTES (2.5 mM, Pepro Tech Inc., New Jersey, USA) was effected in 2×10^5 cMAGI cells. Following 30 min of incubation, cells were washed with ice-cold wash buffer and analysed by flow cytometry as described above.

CCR5 = target: T2, CCR5 (Homo sapiens, UniProt P51681); conditions: PHA stimulated peripheral blood lymphocytes; cited from earlier work
T2 construct: in PHA stimulated peripheral blood lymphocytes (PBL); host or cells: PHA stimulated peripheral blood lymphocytes (PBL)
T2 sequence (P51681 whole entry): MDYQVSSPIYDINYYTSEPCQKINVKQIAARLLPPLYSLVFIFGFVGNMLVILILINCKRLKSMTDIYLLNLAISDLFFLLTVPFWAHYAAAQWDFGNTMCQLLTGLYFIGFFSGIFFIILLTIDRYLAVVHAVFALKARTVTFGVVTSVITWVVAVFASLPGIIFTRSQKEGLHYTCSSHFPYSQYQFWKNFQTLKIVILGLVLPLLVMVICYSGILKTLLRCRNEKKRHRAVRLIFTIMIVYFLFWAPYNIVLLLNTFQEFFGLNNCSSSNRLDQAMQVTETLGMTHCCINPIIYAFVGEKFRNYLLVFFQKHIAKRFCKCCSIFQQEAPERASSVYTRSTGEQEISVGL

CD4 = target: T3, CD4 (Homo sapiens, UniProt P01730); conditions: PHA stimulated peripheral blood lymphocytes; cited from earlier work
T3 construct: in PHA stimulated peripheral blood lymphocytes (PBL); host or cells: PHA stimulated peripheral blood lymphocytes (PBL)

[2] = tested on: lymphocytes, PBMC and neurons; conditions: cited from earlier work
HIV-1IIIB wild type = test: Inhibition of HIV-1IIIB wild type in MT2 or cMAGI cells; assay type: cell-based; conditions: HIV-1IIIB wt; mean and standard deviation of three separate experiments; read-out: EC50, Wild-type
Description: The cMAGI assay is based on the ability of HIV-1 TAT to transactivate the expression of an integrated β-galactosidase reporter gene driven by the HIV-LTR [Chackerian, B. et al., 1997. J Virol. 71: 3932–3939; Collins, K. B. et al., 2000. Nat. Med. 6: 475–479]. The β-galactosidase reporter has been modified to remain localized in the nucleus where it can be detected with the X-gal substrate as an intense nuclear stain within a few days of infection. The X-gal substrate used was 5-bromo-4-chloro-3-indoyl-beta-D-galactopyranoside. HIV1IIIB was propagated by subculture in MT2 as described previously [Litovchick (2001) Supra]. Aliquots of cell-free culture supernatants were used as viral inoculum. […] The cytopathic effects of the viral infection of MT2 cells were analyzed by microscopic assessment of syncytium formation. These latter data were obtained by analysis of duplicate samples by two independent observers. HIV-1 infection of cMAGI cells was determined by counting the number of HIV-1 infected cells (stained blue).

HIV-1 isolates = test: Inhibition of HIV-1 infection (cMAGI reporter cells, MT2 syncytium formation); assay type: cell-based; conditions: up to 100 μM
Method: Aliquots of cell-free culture supernatants were used as viral inoculum. […] Cytotoxicity determinations were carried out in MT2 and H9 cells by trypan blue exclusion assay.
Viral inhibition was determined by incubating cMAGI HIV-1 reporter cells with 0.2–0.5 multiplicity of infection of HIV-1IIIB for 4 days at 37° C. in the presence or absence of various concentration of AACs, prior to counting the number of HIV-1 infected cells (stained blue). The cytopathic effects of the viral infection of MT2 cells were also analyzed by microscopic assessment of syncytium formation. These latter data were obtained by analysis of duplicate samples by two independent observers.

Compound | Kd (TAR RNA) | IC50 (TAR RNA) [nM] | Kd (RRE IIB RNA) | IC50 (RRE IIB RNA) [nM] | reduction of 12G5 mAb binding to the cells (CXCR4) [%] | inhibition of mAb 12G5 or SDF-1α binding to CXCR4, % of the NeoR6 activity (CXCR4) [%] | other results
CC(=O)O.N=C(N)NCCCC(N)C(=O)NCC1OC(OC2C(N)CC(N)C(O)C2O)C(N)C(O)C1O (centres unmarked) [NeamR1, argininamido-neamine conjugate] | > 500 nM | > 500 | 233 ± 4.5 nM | 342 ± 29.5 | 5 |  | competition with NeoR6-FITC uptake (in words) (MT-2 cells): did not compete
CC(=O)O.N=C(N)NCCCC(N)C(=O)NCC1OC(OC2C(NC(=O)C(N)CCCNC(=N)N)CC(NC(=O)C(N)CCCNC(=N)N)C(O)C2O)C(NC(=O)C(N)CCCNC(=N)N)C(O)C1O (centres unmarked) [NeamR4, Neamine tetra-arginine conjugate] | 30 nM and 30.1 nM | 82.8 ± 7.7 | 55 nM and 54.7 nM | 119 ± 13.5 | 60 | 70 | folds less active / times weaker than NeoR6, TAR binding (TAR RNA; ratio of KD to that of NeoR6): 6; competition with RhdRev for TAR RNA binding (in words) (TAR RNA): efficiently competed; cellular uptake of FITC-labeled AAC by PM1 cells [1]: uptaken by PM1 cells; inhibition of NeoR6-FITC uptake, less affinity than NeoR6 (MT-2 cells): about 50%; MFI of FITC-AAC uptake (PM1 cells; 62.5 nM SDF-1α): 56; inhibition of cell uptake by SDF-1α (PM1 cells; 125 nM SDF-1α): about 50%; MFI of FITC-AAC uptake (PM1 cells; 125 nM SDF-1α): 52; MFI of FITC-AAC uptake (PM1 cells; 250 nM SDF-1α): 50; MFI of FITC-AAC uptake (PM1 cells; without SDF-1α): 96; effect of RANTES on uptake of FITC derivative (cMAGI cells): did not affect uptake
CC(=O)O.N=C(N)NCCCC(N)C(=O)NCC1OC(OC2C(CO)OC(OC3C(O)C(N)CC(N)C3OC3OC(CNC(=O)C(N)CCCNC(=N)N)C(O)C(O)C3N)C2O)C(N)C(O)C1O (centres unmarked) [NeoR2, diargininamido-neomycin B conjugate] | > 500 nM | > 500 | 112 ± 3.7 nM | 208 ± 21.1 | 48 | 55 | inhibition of NeoR6-FITC uptake, less affinity than NeoR6 (MT-2 cells): about 50%
CC(=O)O.N=C(N)NCCCC(N)C(=O)NCC1OC(OC2C(CO)OC(OC3C(O)C(N)CC(N)C3OC3OC(CO)C(O)C(O)C3N)C2O)C(N)C(O)C1O (centres unmarked) [ParomR1, argininamido-paramomycin conjugate] | > 500 nM | > 500 | 254 ± 7.8 nM | 407 ± 41 | 16 |  | competition with NeoR6-FITC uptake (in words) (MT-2 cells): did not compete
CC(=O)O.N=C(N)NCCCC(N)C(=O)NCC1OC(OC2C(CO)OC(OC3C(O)C(NC(=O)C(N)CCCNC(=N)N)CC(NC(=O)C(N)CCCNC(=N)N)C3OC3OC(CO)C(O)C(O)C3NC(=O)C(N)CCCNC(=N)N)C2O)C(NC(=O)C(N)CCCNC(=N)N)C(O)C1O (centres unmarked) [ParomR5, pentaargininamido-paromomycin conjugate] | 15 nM and 15.1 nM | 34.3 ± 5.7 | 96 nM and 95.9 nM | 149 ± 12.3 | 81 | 90 | competition with RhdRev for TAR RNA binding (in words) (TAR RNA): efficiently competed; times weaker than NeoR6, RRE IIB binding (RRE IIB RNA; ratio of KD to that of NeoR6): about 4; cellular uptake of FITC-labeled AAC by PM1 cells [1]: uptaken by PM1 cells; inhibition of NeoR6-FITC uptake, less efficient than NeoR6 (MT-2 cells; 40 fold excess of non-labeled AAC): about 50%; inhibition of NeoR6-FITC uptake, less affinity than NeoR6 (MT-2 cells): about 50%; MFI of FITC-AAC uptake (PM1 cells; 62.5 nM SDF-1α): 83; inhibition of cell uptake by SDF-1α (PM1 cells; 125 nM SDF-1α): about 50%; MFI of FITC-AAC uptake (PM1 cells; 125 nM SDF-1α): 59; MFI of FITC-AAC uptake (PM1 cells; 250 nM SDF-1α): 53; MFI of FITC-AAC uptake (PM1 cells; without SDF-1α): 104; effect of RANTES on uptake of FITC derivative (cMAGI cells): did not affect uptake
NC(N)=NCCC[C@H](N)C(=O)NC[C@H]1O[C@H](O[C@H]2C(O)[C@@H](O[C@H]3O[C@H](CO)[C@@H](O)[C@H](NC(=O)[C@@H](N)CCCN=C(N)N)[C@H]3O)[C@H](NC(=O)[C@@H](N)CCCN=C(N)N)C[C@@H]2NC(=O)[C@@H](N)CCCN=C(N)N)[C@H](O)[C@@H](O)[C@@H]1O (some centres unmarked) [R4K] |  |  |  |  |  |  | inhibition of binding of 2D7, a mAb directed to CCR5 (CCR5): neither R3G nor R4K or NeoR6 inhibit the binding; inhibition of binding of anti CD4 antibody (Leu 3a) (CD4): neither R3G nor R4K or NeoR6 inhibit the binding; accumulation in cells [2]: accumulate in different cell types
Nc1ccn([C@H]2CC[C@@H](CO)O2)c(=O)n1 [ddC, Dideoxycytosine, reference compound] |  |  |  |  |  |  | EC50 (HIV-1IIIB wild type): 300 ± 100 nM
NC[C@H]1O[C@H](O[C@H]2[C@H](O)[C@@H](O)[C@H](N)C[C@@H]2N)[C@H](N)[C@@H](O)[C@@H]1O [neamine, reference compound] |  |  |  |  |  |  | antiviral activity (in words) (HIV-1 isolates): did not reveal antiviral activity; inhibition of 12G5 mAb binding to CXCR4 (in words) (CXCR4): did not inhibit
NC[C@@H]1O[C@H](O[C@H]2[C@@H](O)[C@H](O[C@@H]3[C@@H](O)[C@H](N)C[C@H](N)[C@H]3O[C@H]3O[C@H](CO)[C@@H](O)[C@H](O)[C@H]3N)O[C@@H]2CO)[C@H](N)[C@@H](O)[C@@H]1O [paromomycin, reference compound] |  |  |  |  |  |  | antiviral activity (in words) (HIV-1 isolates): did not reveal antiviral activity; inhibition of 12G5 mAb binding to CXCR4 (in words) (CXCR4): did not inhibit
argininamido-neomycin B conjugate [NeoR1] | > 500 nM | > 500 | 200 ± 5.9 nM | 353 ± 31.9 | 50 | 55 | competition with NeoR6-FITC uptake (in words) (MT-2 cells): did not compete
gentamicin |  |  |  |  |  |  | antiviral activity (in words) (HIV-1 isolates): did not reveal antiviral activity
